# Tests used:
# [1] = system: Candida albicans ATCC 90029; experiment: MIC assay (CLSI M27-A3), Candida albicans ATCC 90029; assay type: cell-based; settings: first batch; 24 h, 35° C.; ≥50% growth inhibition
# Description: (§1) After a test compound was serially diluted, an MIC (minimum inhibitory concentration) assay was performed on the standard Candida strain and an MEC (minimum effective concentration) assay on the standard Aspergillus strain. The MIC assay was performed according to the guidelines of the Clinical and Laboratory Standards Institute (CLSI M27-A3) and the MEC assay according to the guidelines of the Clinical and Laboratory Standards Institute (CLSI M38-A2).
# (§2) The frozen strain was passaged at least twice, and a single colony was picked and resuspended in normal saline or sterile water in a tube. The suspension was vortexed and adjusted to 0.5 McF (1×10^6 to 5×10^6 CFU/mL) using a spectrophotometer at wavelength 530 nm. The suspension was 50-fold diluted with normal saline and then 20-fold diluted with 1×RPMI 1640 broth (1×10^3 to 5×10^3 CFU/mL). 10 μL of the suspension was applied to an SDA plate for colony counting, with a range from about 10 to 50 single colonies.
# (§3) At this time, the bacterium concentration in each well should be 0.5×10^3 to 2.5×10^3 CFU/mL.
# (§4) For echinocandin drugs, Aspergillus was incubated at 28° C. for 21-26 h, and then the MEC results were read.
# (§5) Yeast-type fungi: A disposable sealing film was applied to the 96-well plate, and the mixture was well mixed by shaking. Observation was performed through a plate reader with the naked eye. Comparisons were made to the growth control, and the minimum compound concentration corresponding to ≥50% growth inhibition was defined as MIC. Pictures were taken and saved using an automatic plate reader.
# [2] = system: Candida glabrata ATCC 15126; experiment: MIC assay (CLSI M27-A3), Candida glabrata ATCC 15126; assay type: cell-based; settings: first batch; 24 h, 35° C.; ≥50% growth inhibition
# Description: as §1, §2, §3, §4, §5
# [3] = system: Candida parapsilosis ATCC 22019; experiment: MIC assay (CLSI M27-A3), Candida parapsilosis ATCC 22019; assay type: cell-based; settings: first batch; 24 h, 35° C.; quality control strain
# Description: as §1, §2, §3, §4, §5
# Candida krusei ATCC 6258 = experiment: MIC assay (CLSI M27-A3), Candida krusei ATCC 6258; assay type: cell-based; settings: first batch; 24 h, 35° C.; quality control strain
# Description: as §1, §2, §3, §4, §5
# [4] = system: Meyerozyma guilliermondii ATCC 6260; experiment: MIC assay (CLSI M27-A3), Meyerozyma guilliermondii ATCC 6260; assay type: cell-based; settings: first batch; 24 h, 35° C.
# Description: as §1, §2, §3, §4, §5
# [5] = system: Candida tropicalis ATCC 750; experiment: MIC assay (CLSI M27-A3), Candida tropicalis ATCC 750; assay type: cell-based; settings: first batch; 24 h, 35° C.
# Description: as §1, §2, §3, §4, §5
# [6] = system: Aspergillus flavus ATCC 28539; experiment: MEC assay (CLSI M38-A2), Aspergillus flavus ATCC 28539; assay type: cell-based; settings: first batch; 28° C., 21-26 h
# Description: The MIC assay was performed according to the guidelines of the Clinical and Laboratory Standards Institute (CLSI M27-A3) and the MEC assay according to the guidelines of the Clinical and Laboratory Standards Institute (CLSI M38-A2).
# Colonies on the plate were covered with about 1 mL of 0.85% normal saline or sterile water (polysorbate 20 was added at a final concentration of 0.1%-0.01%). […] The homogeneous upper layer of the suspension was transferred to a new sterile tube, which was then sealed and vortexed for 15 s (be careful as the suspension may produce an aerosol when the cover is removed). The concentration of the suspension was adjusted until an OD value of 0.09-0.13 was achieved using a spectrophotometer at 530 nm. […] 100 μL of sample was added to each well of the 96-well plate within 2 h after dilution (the final spore concentration in the susceptibility testing plate was at 0.4×10^4 to 5×10^4 CFU/mL).
# Aspergillus: For echinocandin drugs, comparisons were made to the growth control under a plate reader, and the minimum drug concentration that could cause the hyphae to form small, round, compact hyphal particles was defined as MEC. For accurate determination of MEC values, the plate must not be vortexed before reading.
# [7] = system: Candida albicans ATCC 90028; experiment: MIC assay (CLSI M27-A3), Candida albicans ATCC 90028; assay type: cell-based; settings: second batch
# Description: as §1, §2
# At this time, the bacterium concentration in each well should be 0.5×10^3 to 2.5×10^3 CFU/mL. […]
# as §5
# [8] = system: Candida albicans ATCC 44858; experiment: MIC assay (CLSI M27-A3), Candida albicans ATCC 44858; assay type: cell-based; settings: second batch
# Description: as §1, §2, §3, §4, §5
# [9] = system: Candida glabrata ATCC 36583; experiment: MIC assay (CLSI M27-A3), Candida glabrata ATCC 36583; assay type: cell-based; settings: second batch
# Description: as §1, §2, §3, §4, §5
# [10] = system: Candida albicans (azole drug-resistant strain) R357; experiment: MIC assay (CLSI M27-A3), Candida albicans azole drug-resistant strain R357; assay type: cell-based; settings: second batch
# Description: as §1, §2, §3, §4, §5
# [11] = system: Candida albicans (azole drug-resistant strain) R358; experiment: MIC assay (CLSI M27-A3), Candida albicans azole drug-resistant strain R358; assay type: cell-based; settings: second batch
# Description: as §1, §2, §3, §4, §5
# [12] = system: Candida tropicalis (amphotericin-resistant strain) ATCC 200956; experiment: microbe, parasite or virus in culture; assay type: cell-based; settings: second batch
# Description: as §1, §2, §3, §4, §5
# [13] = Plasma histamine assay after single intravenous injection in SD rats; assay type: in vivo; settings: SD rats
# Description: (§6) 12 SD rats were divided into 2 groups of 6 (half are male and half female). […] The body weights were measured once before administration. Administration was performed by single intravenous injection for 20 min per animal. PK measurement was performed once before administration and 5 min, 30 min, 1 h, 4 h, 8 h, 24 h, 48 h, 72 h and 96 h after administration. A histamine assay was performed once before administration and 30 min, 4 h, 8 h and 24 h after administration.
# [14] = Pharmacokinetic study after single intravenous injection in SD rats; assay type: in vivo; settings: 10 mg/kg single intravenous injection
# Description: as §6
# [15] = General state observation after single intravenous injection in SD rats; assay type: in vivo; settings: 10 mg/kg single intravenous injection
# Description: as §6
substance,measurement,setting,value
Rezafungin acetate,"MIC, Candida albicans ATCC 90029",[1],0.125 µg/mL
same,"MIC, Candida glabrata ATCC 15126",[2],0.125 µg/mL
same,"MIC, Candida parapsilosis ATCC 22019",[3],2 µg/mL
same,"MIC, Candida krusei ATCC 6258",Candida krusei ATCC 6258,0.25 µg/mL
same,"MIC, Meyerozyma guilliermondii ATCC 6260",[4],2 µg/mL
same,"MIC, Candida tropicalis ATCC 750",[5],0.016 µg/mL
same,"MEC, Aspergillus flavus ATCC 28539",[6],0.031 µg/mL
same,"MIC, Candida albicans ATCC 90028","[7]; 24 h, 35° C.",0.25 µg/mL
same,"MIC, Candida albicans + 50% human serum ATCC 90028",[7]; + 50% human serum,0.25 µg/mL
same,"MIC, Candida albicans ATCC 44858",[8],0.25 µg/mL
same,"MIC, Candida glabrata ATCC 36583",[9],0.25 µg/mL
same,"MIC, Candida albicans (azole drug-resistant strain) R357",[10],0.25 µg/mL
same,"MIC, Candida albicans (azole drug-resistant strain) R358",[11],0.25 µg/mL
same,"MIC, Candida tropicalis (amphotericin-resistant strain) ATCC 200956",[12],0.25 µg/mL
same,mean plasma histamine concentration relative to group 1,"[13]; 10 mg/kg i.v., 30 min after administration, p=0.046",4.5 times
same,time at which plasma histamine concentration peaked,[13]; 10 mg/kg single intravenous injection,30 min
same,mean histamine concentration in the plasma,"[13]; 10 mg/kg single intravenous injection, 30 min after administration",1333.0 ng/mL
same,AUC0-96,[14]; female SD rats,205.8 µg·h/mL
same,AUC0-inf,[14]; female SD rats,227.2 µg·h/mL
same,CL,[14]; female SD rats,0.8 mL/min/kg
same,Cmax,[14]; female SD rats,8600 ng/mL
same,MRTIV,[14]; female SD rats,39.1 h
same,T1/2,[14]; female SD rats,27.9 h
same,VdSS,[14]; female SD rats,1.8 L/kg
same,AUC0-96,[14]; male SD rats,190.5 µg·h/mL
same,AUC0-inf,[14]; male SD rats,212.1 µg·h/mL
same,CL,[14]; male SD rats,0.8 mL/min/kg
same,Cmax,[14]; male SD rats,7800 ng/mL
same,MRTIV,[14]; male SD rats,38.4 h
same,T1/2,[14]; male SD rats,28.0 h
same,VdSS,[14]; male SD rats,1.8 L/kg
same,general state observation,[15],transient slight decrease in activity

# Source: patent US12466856B2, “Echinocandin analogues and preparation method therefor” (SHANGHAI SENHUI MEDICINE CO., LTD., priority 2019, dated 2025)
